Values joined by “and” are separate entries in the source; they are usually repeats but may differ in a detail not shown here. Equal values may be shown once.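 Five compound concentrations were applied to cells in 96-well plates for 48 hours; endpoints were derived by simple linear interpolation of the resulting dose-response curve. At the GI50, growth is halved. TGI denotes the concentration required for complete inhibition of growth.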
What was measured:
Test in all cases: growth of human tumour cells (NCI), 48 h
[1] = test system: T-47D breast
[2] = test system: SF-295 CNS
[3] = test system: NCI/ADR-RES ovarian
[4] = test system: IGROV1 ovarian
[5] = test system: MDA-MB-435
[6] = test system: NCI-H460 lung
[7] = test system: SK-MEL-2 melanoma
[8] = test system: NCI-H226 lung

O=c1[nH]c2ccccc2nc1-c1c[nH]c2ccccc12
GI50 [1]: 8.63 µM
TGI [1]: > 100 µM
GI50 [2]: 68.2 µM
TGI [2]: > 100 µM
GI50 [3]: > 100 µM
TGI [3]: > 100 µM
GI50 [4]: 1.26 µM
TGI [4]: > 100 µM
GI50 [5]: > 100 µM
TGI [5]: > 100 µM
GI50 [6]: > 100 µM
TGI [6]: > 100 µM
GI50 [7]: > 100 µM
TGI [7]: > 100 µM

CC(C)CC(CC1=CCC2CC1C2(C)C)C1=C(O)C(C)(C)C(=O)C(C)(C)C1=O (stereo not given)
GI50 [2]: 0.285 µM
TGI [2]: 0.942 µM
GI50 [3]: 0.306 µM
TGI [3]: 0.979 µM
GI50 [4]: 0.5 µM
TGI [4]: > 100 µM
GI50 [5]: 0.374 µM
TGI [5]: 31.8 µM
GI50 [8]: 0.42 µM
TGI [8]: 9.46 µM
GI50 [7]: 0.286 µM
TGI [7]: 0.722 µM

N#C/C(=C\c1c(-c2ccccc2)[nH]c2ccccc12)S(=O)(=O)c1ccccc1
GI50 [1]: 3.82 µM
TGI [1]: 33.8 µM
GI50 [2]: 2.21 µM
TGI [2]: 14.6 µM
GI50 [3]: 1.06 µM
TGI [3]: 43.4 µM
GI50 [4]: 3.28 µM
TGI [4]: 25.9 µM
GI50 [5]: 0.287 µM
TGI [5]: 3.77 µM
GI50 [8]: 4.06 µM
TGI [8]: 37.8 µM
GI50 [6]: 2.73 µM
TGI [6]: 18.3 µM
GI50 [7]: 12.5 µM
TGI [7]: 45.3 µM

COC(=O)Cn1c2c(c3c(O)cccc31)C(=O)c1ccccc1-2
GI50 [1]: > 100 µM
TGI [1]: > 100 µM
GI50 [2]: > 100 µM
TGI [2]: > 100 µM
GI50 [3]: > 100 µM
TGI [3]: > 100 µM
GI50 [4]: > 100 µM
TGI [4]: > 100 µM
GI50 [5]: > 100 µM
TGI [5]: > 100 µM
GI50 [8]: > 100 µM
TGI [8]: > 100 µM
GI50 [6]: > 100 µM
TGI [6]: > 100 µM
GI50 [7]: > 100 µM
TGI [7]: > 100 µM

COc1cc2nc(N3CCCC3)nc(NCC3CCCCC3)c2cc1OC
GI50 [1]: 1.45 µM
TGI [1]: 3.51 µM
GI50 [2]: 1.38 µM
TGI [2]: 2.71 µM
GI50 [3]: 1.51 µM
TGI [3]: 3.47 µM
GI50 [4]: 1.48 µM
TGI [4]: 3.06 µM
GI50 [5]: 1.11 µM
TGI [5]: 2.33 µM
GI50 [8]: 1.94 µM
TGI [8]: 4.05 µM
GI50 [6]: 1.75 µM
TGI [6]: 3.35 µM
GI50 [7]: 1.86 µM
TGI [7]: 3.51 µM

CS(=O)(=O)c1ccc(C(=O)Nc2ccc(Cl)c(-c3ccccn3)c2)c(Cl)c1
TGI [1]: > 100 µM and 12.1 µM
TGI [3]: > 100 µM and 25.7 µM
TGI [4]: > 100 µM
TGI [8]: > 100 µM and 26.5 µM

CC(C)(C)c1ccc(OCCCCCCN2CCNCC2)cc1
GI50 [1]: 2.22 µM
TGI [1]: 5.94 µM
GI50 [2]: 8.82 µM
TGI [2]: 22.3 µM
GI50 [3]: 14.3 µM
TGI [3]: 33.7 µM
GI50 [4]: 6.34 µM
TGI [4]: 22.6 µM
GI50 [5]: 3.17 µM
TGI [5]: 11.9 µM
GI50 [8]: 15.3 µM
TGI [8]: 34.3 µM
GI50 [6]: 3.21 µM
TGI [6]: 11.4 µM

CC(CN1CCN(CCOCCO)CC1)CN1c2ccccc2Sc2ccc(Cl)cc21 (stereo not given)
GI50 [1]: 6.22 µM
TGI [1]: 22.6 µM
GI50 [3]: 4.39 µM
TGI [3]: 18.1 µM
GI50 [4]: 3.36 µM
TGI [4]: 13.3 µM
GI50 [5]: 2.06 µM
TGI [5]: 4.96 µM
GI50 [8]: 11.5 µM
TGI [8]: 36.8 µM
GI50 [6]: 2.36 µM
TGI [6]: 5.35 µM
GI50 [7]: 1.87 µM
TGI [7]: 3.63 µM

O=C(/C(=C/c1ccc([N+](=O)[O-])cc1)c1ccccc1)c1ccccc1
GI50 [1]: 3.13 µM
TGI [1]: > 100 µM
GI50 [2]: 3.56 µM
TGI [2]: > 100 µM
GI50 [3]: 3.23 µM
TGI [3]: > 100 µM
GI50 [4]: 3.25 µM
TGI [4]: > 100 µM
GI50 [6]: 2.34 µM
TGI [6]: 5.93 µM

O=C1c2ccccc2-c2c1c1ccc([N+](=O)[O-])cc1c(=O)n2CCCBr
GI50 [1]: > 100 µM
TGI [1]: > 100 µM
GI50 [4]: > 100 µM
TGI [4]: > 100 µM
GI50 [5]: > 100 µM
TGI [5]: > 100 µM
GI50 [7]: > 100 µM
TGI [7]: > 100 µM

CCN(C(=O)N1CCN(c2cc3c(cc2F)c(=O)c(C(=O)O)cn3C2CC2)CC1)c1nc(-c2ccc(C)cc2)cs1
GI50 [1]: 2.11 µM
TGI [1]: > 100 µM
GI50 [2]: 0.306 µM
TGI [2]: 3.76 µM
GI50 [4]: 0.354 µM
TGI [4]: > 100 µM
GI50 [5]: 0.56 µM
TGI [5]: > 100 µM
GI50 [6]: 0.356 µM
TGI [6]: 11.9 µM
GI50 [7]: 2.5 µM
TGI [7]: 7.38 µM

COc1cc2c(c(OC)c1OC)-c1ncc3cc(OC)c(OC)c(OC)c3c1C2
GI50 [1]: 50.4 µM
TGI [1]: > 100 µM
GI50 [2]: 18.7 µM
TGI [2]: 42.4 µM
GI50 [3]: 12.1 µM
TGI [3]: 51.2 µM
GI50 [4]: 25.2 µM
TGI [4]: 63.2 µM
GI50 [5]: 20.8 µM
TGI [5]: 51 µM
GI50 [6]: 30 µM
TGI [6]: 78.2 µM
GI50 [7]: 22.9 µM
TGI [7]: 56.8 µM

CC(C)(C)c1n[nH]c(=S)n(/N=C/c2ccc(F)c(Oc3ccccc3)c2)c1=O
GI50 [1]: 55.7 µM
TGI [1]: > 100 µM
GI50 [2]: 15.3 µM
TGI [2]: > 100 µM
GI50 [3]: 35.1 µM
TGI [3]: > 100 µM
GI50 [4]: 35.9 µM
TGI [4]: > 100 µM
GI50 [5]: 38 µM
TGI [5]: > 100 µM
GI50 [8]: > 100 µM
TGI [8]: > 100 µM
GI50 [6]: 31 µM
TGI [6]: > 100 µM

Cn1c2c(cc(S(=O)(=O)c3ccccc3)c1=O)CCc1c-2cnn1-c1ccc(Cl)cc1
GI50 [1]: 2.06 µM
TGI [1]: 5.5 µM
GI50 [2]: 2.09 µM
TGI [2]: 5.04 µM
GI50 [3]: 3.09 µM
TGI [3]: 8.94 µM
GI50 [4]: 3.22 µM
TGI [4]: > 100 µM
GI50 [8]: 2.22 µM
TGI [8]: 4.94 µM
GI50 [7]: 2.56 µM
TGI [7]: 5.9 µM

O=S(=O)(c1ccccc1)C(CN1CCCCC1)S(=O)(=O)c1ccccc1
TGI [2]: > 100 µM
TGI [4]: > 100 µM
TGI [8]: > 100 µM
TGI [6]: > 100 µM
TGI [7]: > 100 µM

O=C(NN1C(=O)CSC12CCCCC2)c1[nH]c2ccc(F)cc2c1-c1ccccc1
GI50 [1]: 35.6 µM
TGI [1]: > 100 µM
GI50 [2]: 22.2 µM
TGI [2]: 40 µM
GI50 [4]: 14.4 µM
TGI [4]: 32.9 µM
GI50 [5]: 21.8 µM
TGI [5]: 52.9 µM
GI50 [8]: 28.1 µM
TGI [8]: 77 µM
GI50 [6]: 26.6 µM
TGI [6]: 77.7 µM
GI50 [7]: 34.6 µM
TGI [7]: > 100 µM

CCCCCCCCCCCCCCCCCC(=O)OCC(COC1OC(COP(=O)(O)O)C(O)C(O)C1O)OC(=O)CCCCCCCCCCCCCCCCC (stereo not given)
TGI [1]: 28.9 µM
TGI [2]: 10.6 µM
TGI [3]: 18.2 µM
TGI [4]: 10.5 µM
TGI [5]: 17.1 µM
TGI [8]: 13.3 µM
TGI [6]: 23.4 µM

Clc1cc(Cl)c(OCC#CI)cc1Cl
GI50 [1]: 1.22 µM
TGI [1]: 3.01 µM
GI50 [2]: 10.4 µM
TGI [2]: 23.7 µM
GI50 [3]: 2.79 µM
TGI [3]: 9.66 µM
GI50 [5]: 2.02 µM
TGI [5]: 5.44 µM
GI50 [8]: 19.3 µM
TGI [8]: 40.8 µM
GI50 [6]: 15.5 µM
TGI [6]: 30.9 µM
GI50 [7]: 7.98 µM
TGI [7]: 21.3 µM

C=C1CC[C@@H]2[C@](C)(COC(C)=O)[C@@H](O)CC[C@@]2(C)[C@@H]1COc1ccc2ccc(=O)oc2c1
GI50 [1]: > 100 µM
TGI [1]: > 100 µM
GI50 [2]: 25.9 µM
TGI [2]: 79.1 µM
GI50 [3]: > 100 µM
TGI [3]: > 100 µM
GI50 [4]: > 100 µM
TGI [4]: > 100 µM
GI50 [5]: > 100 µM
TGI [5]: > 100 µM
GI50 [6]: > 100 µM
TGI [6]: > 100 µM
GI50 [7]: > 100 µM
TGI [7]: > 100 µM
